What was measured:
[1] = target: T1, AhR (Cavia porcellus, UniProt Q6J287); conditions: any tested concentration, 2 nM [3H]TCDD
T1 sequence (Q6J287 1-846): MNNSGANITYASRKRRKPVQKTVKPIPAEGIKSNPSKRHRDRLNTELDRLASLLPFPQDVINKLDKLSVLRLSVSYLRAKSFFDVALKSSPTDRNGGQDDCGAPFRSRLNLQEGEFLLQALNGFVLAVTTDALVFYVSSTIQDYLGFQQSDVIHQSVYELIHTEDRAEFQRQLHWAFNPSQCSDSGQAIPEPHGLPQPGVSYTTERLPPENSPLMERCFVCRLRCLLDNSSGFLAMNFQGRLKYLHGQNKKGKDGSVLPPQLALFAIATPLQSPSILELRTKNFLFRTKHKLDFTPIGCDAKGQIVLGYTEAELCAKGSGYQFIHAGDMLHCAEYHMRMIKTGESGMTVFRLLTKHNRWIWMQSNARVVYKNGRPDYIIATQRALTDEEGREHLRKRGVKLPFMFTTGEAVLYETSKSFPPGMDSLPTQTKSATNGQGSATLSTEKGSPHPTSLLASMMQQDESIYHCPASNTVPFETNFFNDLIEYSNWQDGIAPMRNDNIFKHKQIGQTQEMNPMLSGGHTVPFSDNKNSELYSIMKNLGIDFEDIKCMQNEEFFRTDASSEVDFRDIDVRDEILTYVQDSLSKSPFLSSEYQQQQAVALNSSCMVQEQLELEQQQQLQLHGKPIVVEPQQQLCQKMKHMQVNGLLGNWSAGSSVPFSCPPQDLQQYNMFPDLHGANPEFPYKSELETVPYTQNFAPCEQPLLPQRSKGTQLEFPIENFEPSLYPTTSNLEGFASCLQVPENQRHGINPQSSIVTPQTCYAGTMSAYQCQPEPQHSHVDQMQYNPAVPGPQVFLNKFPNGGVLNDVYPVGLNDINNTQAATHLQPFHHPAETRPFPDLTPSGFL

[2] = test system: CYP1A1 mRNA; assay: CYP1A1 mRNA expression in primary human hepatocytes; type: cell-based; conditions: human
[3] = test system: CYP1A1 mRNA in primary human hepatocytes; assay: as above; type: cell-based; conditions: four different primary human hepatocytes cultures
[4] = target: T2, AhR (Homo sapiens, UniProt P35869); assay: Gene reporter assay, transcriptional activity of AhR in AZ-AHR reporter cells; conditions: 10 µM and 50 µM, 24 h
T2 sequence (P35869 11-848): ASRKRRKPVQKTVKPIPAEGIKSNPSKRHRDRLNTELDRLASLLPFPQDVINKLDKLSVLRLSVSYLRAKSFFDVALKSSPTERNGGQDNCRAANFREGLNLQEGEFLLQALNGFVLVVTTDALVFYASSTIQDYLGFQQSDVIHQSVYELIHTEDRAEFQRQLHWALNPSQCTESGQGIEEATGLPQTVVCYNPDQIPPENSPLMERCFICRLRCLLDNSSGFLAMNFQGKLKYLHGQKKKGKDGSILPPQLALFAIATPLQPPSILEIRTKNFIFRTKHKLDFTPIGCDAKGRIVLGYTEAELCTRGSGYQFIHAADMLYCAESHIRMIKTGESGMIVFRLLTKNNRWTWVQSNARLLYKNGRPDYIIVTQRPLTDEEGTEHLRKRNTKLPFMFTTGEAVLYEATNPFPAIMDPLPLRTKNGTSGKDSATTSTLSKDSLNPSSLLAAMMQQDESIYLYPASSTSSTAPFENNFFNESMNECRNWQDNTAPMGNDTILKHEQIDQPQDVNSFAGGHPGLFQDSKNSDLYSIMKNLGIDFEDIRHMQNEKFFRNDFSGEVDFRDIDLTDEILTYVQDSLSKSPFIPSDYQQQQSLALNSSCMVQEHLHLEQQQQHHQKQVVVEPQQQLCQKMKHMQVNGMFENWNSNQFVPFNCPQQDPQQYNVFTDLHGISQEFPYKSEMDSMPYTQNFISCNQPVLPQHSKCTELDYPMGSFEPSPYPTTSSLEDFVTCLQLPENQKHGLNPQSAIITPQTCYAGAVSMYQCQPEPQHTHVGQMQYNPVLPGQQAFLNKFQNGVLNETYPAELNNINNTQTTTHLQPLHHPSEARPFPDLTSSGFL

[5] = test system: CYP1A1 mRNA in HepG2 cells; assay: CYP1A1 mRNA expression in HepG2 cells; conditions: HepG2, 50 µM, 24 h
[6] = test system: CYP1A1 mRNA in LS174T cells; assay: CYP1A1 mRNA expression in LS174T cells; conditions: 50 µM, 24 h
[7] = test system: CYP1A1 protein in primary human hepatocytes; assay: CYP1A1 protein in primary human hepatocytes; conditions: four different primary human hepatocytes cultures
[8] = male, primary human hepatocytes (culture LH45)
[9] = male, primary human hepatocytes (culture LH46)

- displacement of radiolabelled TCDD from AhR [1]: did not displace
- fold induction at 24 h, 50 µM ([2]; primary human hepatocytes (culture LH48 as printed)): 0.13 ± 0.03
- fold induction at 24 h, 10 µM [2, 8]: 0.68 ± 0.2
- fold induction at 24 h, 50 µM [2, 8]: 0.48 ± 0.07
- fold induction at 24 h, 10 µM [2, 9]: 2.21 ± 0.16
- fold induction at 24 h, 50 µM [2, 9]: 2.59 ± 0.09
- fold induction at 24 h, 50 µM ([2]; male, primary human hepatocytes (culture LH47)): 0.45 ± 0.03
- induction of CYP1A1 mRNA [3]: Neither compound induced
- induction of luciferase activity [4]: concentration-dependent induction
- level of CYP1A1 mRNA [5]: significantly increased
- level of CYP1A1 mRNA [6]: significantly increased
- induction of CYP1A1 protein [7]: Neither compound induced
SMILES: OC[C@H]1O[C@@H](Oc2cc3c(O[C@@H]4O[C@H](CO)[C@@H](O)[C@H](O)[C@H]4O)cc(O)cc3[o+]c2-c2ccc(O)c(O)c2)[C@H](O)[C@@H](O)[C@@H]1O [CYA-3, cyanidin-3,5-di-O-glucoside chloride]
